Like-named read-outs stand apart in the source and are kept apart here. *1 amine or outer side, *2 acyl side, *3 side chain or, on linkers, in order; H or OH if unused. Where a SMILES comes first, the peptide text is derived from it. [ ]: non-standard residue; d: D form. The star is where a group is joined. X2 = CC(C)C[C@@H](C(N)=O)S(=O)(=O)C[C@H](Cc1ccccc1)N*; X1 = CN(/C(=C\c1ccccc1)C(=O)[*:2])[*:1]; pGlu = O=C1CC[C@@H](C(=O)O)N1
Experiments:
bombesin receptor [1] = molecular target: T1, bombesin receptor (Mus musculus, UniProt P21729); test: Phosphatidylinositol (PI) turnover in chopped mouse pancreas; assay type: cell-based
T1 construct: from tissue
T1 sequence (P21729 whole entry): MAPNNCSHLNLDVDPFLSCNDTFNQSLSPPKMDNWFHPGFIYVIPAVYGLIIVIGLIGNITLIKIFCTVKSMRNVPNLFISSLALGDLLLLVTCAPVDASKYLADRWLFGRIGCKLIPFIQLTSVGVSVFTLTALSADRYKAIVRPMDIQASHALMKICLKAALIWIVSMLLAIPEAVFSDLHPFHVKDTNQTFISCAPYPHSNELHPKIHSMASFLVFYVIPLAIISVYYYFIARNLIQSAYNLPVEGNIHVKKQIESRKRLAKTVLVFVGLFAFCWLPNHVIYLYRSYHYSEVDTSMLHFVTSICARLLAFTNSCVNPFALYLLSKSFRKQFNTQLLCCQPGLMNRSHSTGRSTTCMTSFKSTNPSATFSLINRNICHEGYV
Procedure: (§1) Pept. […] Pept 32: 241-251, 1991.
Pancrea from mice were chopped at 350 μm with a tissue chopper and pooled in Krebs-Hepes buffer [118 mM NaCl, 1.2 mM K2 PO4, 4.7 mM KCl, 1.2 mM MgSO4, 1.0 mM CaCl2, 11.7 mM glucose, 20 mM Hepes (pH 7.4)]. The chopped tissue was washed once with oxygenated Krebs-Hepes,then incubated for 30 minutes in 37° C. oxygenated Krebs-Hepes buffer with fresh buffer after 15 minutes. The tissue was then incubated in this buffer containing 200 μCi of [^3 H]inositot at 37° C. for 1 hour. The tissue was then washed twice and incubated for another 30 minutes in oxygenated Krebs-Hepes (containing 10 mM Li+) at 37° C. and with fresh buffer change after 15 minutes. Portions of the tissue mass (approximately 10 mg per assay tube) were then placed in Li+ buffer with protease inhibitors (40 μg/ml bacitracin, 4 μg/ml leupeptin, 4 μg/ml chymostatin, 0.8 μg/ml thiorphan), 0.1% BSA, and 0.1-1000 μM peptide. After 60 minutes at room temperature, the phosphatidylinositol turnover was terminated by the addition of 940 μl chloroform:methanol (1:2), followed by 310 μl chloroform, followed by 310 μl water. Each tube was then vortexed three times for 5 seconds each time and then centrifuged at […] for 8 minutes to separate the phases. 50 μl of the bottom phase (chloroform) was withdrawn from each tube and placed in a counting vial, dried, and counted in scintillation fluid. 900 μl of the top (aqueous) phase was then mixed with 2.1 ml water and loaded onto a 0.5 ml Biorad AG-1×8 (formate) ion exchange column. The material on the columns was washed in order with: 1) 10 ml of water 2) 5 ml of […] disodium tetraborate/60 mM sodium formate 3) 10 ml of 1M ammonium formate in 0.1M formic acid. The final (third) wash was collected and one ml was mixed with 14 ml of Bio-Safe or E-Colume scintillant and counted. The ratio of these counts (total inositol phosphates) to the corresponding organic phase counts (inositol incorporated into the tissue) was then calculated for each sample. The ratios in the presence of test compound and/or standards were then compared to the ratios for control tubes (i.e., no stimulating agonist). The abilities of test compounds to stimulate phosphatidylinositol turnover were determined with the aid of a computer program.

[2] = tested on: cell surface receptors that bind bombesin; details: background section; read-out: KD of high-affinity cell surface receptors that bind bombesin; cited from earlier work
bombesin receptor [3] = molecular target: T1, bombesin receptor; test: Competitive binding of 125I-GRP to the bombesin receptor in mouse pancreas membranes
Procedure: as §1
The pancreas from one or more mice were pooled and homogenized in 50 mM HEPES (pH 7.4) containing 120 mM NaCl, 5 mM KCl, and protease inhibitors (1 μg/ml aprotinin, leupeptin, pepstatin; 4 μg/ml bacitracin, antipain, bestatin; 100 μM PMSF; 1 mM EDTA) at 4° C. and centrifuged at 37,500 × g for 15 minutes. The pellet was resuspended in 50 mM HEPES (pH 7.4) containing 10 mM EDTA, 300 mM KCl, and protease inhibitors, and then incubated for 30 minutes at 4° C. The suspension was centrifuged as above and the pellet was washed two times in 50 mM HEPES (pH 7.4) containing 0.8 μg/ml thiorphan and protease inhibitors, and again centrifuged. The tissue was then resuspended in incubation buffer (1 ml per 4 mg pancreas) and incubated for 15 minutes at room temperature, then 250 μl were added to each assay tube to commence the assay. The assay tubes contained incubation buffer consisting of 50 mM HEPES (pH 7.4), 0.5% BSA, protease inhibitors, 2 mM MnCl2, 0.8 μg/ml thiorphan, 1 μM somatostatin, and concentrations of ^125 I-GRP and peptides as needed in a final volume of 500 μl. The assay was allowed to proceed to equilibrium for 90 minutes at room temperature. After this time, the contents of each tube were rapidly filtered over Whatman GF/B filters presoaked in 0.1% polyethyleneimine and the tubes and filters were rapidly washed three times with ice-cold 50 mM HEPES (pH 7.4). Filter-bound radioactivity was quantitated in a gamma counter. Competition of iodinated GRP binding by test compounds or standards was expressed as a percentage of ^125 I-GRP binding in the absence of peptide. Affinity and maximal binding were calculated with LIGAND (Biosoft, Cambridge, UK).

Structure (SMILES)	Agonist (bombesin receptor [1])	Antagonist (bombesin receptor [1])	Kd (bombesin receptor [3])	other results
CSCC[C@H](NC(=O)[C@H](CC(C)C)NC(=O)[C@H](Cc1cnc[nH]1)NC(=O)CNC(=O)[C@@H](NC(=O)[C@H](C)NC(=O)[C@H](Cc1c[nH]c2ccccc12)NC(=O)[C@H](CCC(N)=O)NC(=O)[C@H](CC(N)=O)NC(=O)CNC(=O)[C@H](CC(C)C)NC(=O)[C@H](CCCN=C(N)N)NC(=O)[C@H](CCC(N)=O)NC(=O)[C@@H]1CCC(=O)N1)C(C)C)C(N)=O [Analog II, Bombesin]	+	-		Kd [2]: 1 nM
CSCC[C@H](NC(=O)[C@H](Cc1ccccc1)NC(=O)[C@H](Cc1c[nH]cn1)NC(=O)CNC(=O)[C@@H](NC(=O)[C@H](C)NC(=O)[C@H](Cc1c[nH]c2ccccc12)NC(=O)[C@H](CCC(N)=O)NC(=O)[C@@H]1CCC(=O)N1)C(C)C)C(N)=O [Analog III, Litorin]	+	-		
COC(=O)/C(=C/c1ccccc1)NC(=O)[C@H](CC(C)C)NC(=O)[C@H](Cc1c[nH]cn1)NC(=O)CNC(=O)[C@@H](NC(=O)[C@H](C)NC(=O)[C@H](Cc1c[nH]c2ccccc12)NC(=O)[C@H](CCC(N)=O)NC(=O)[C@@H](Cc1ccccc1)NC(C)=O)C(C)C [Analog IV, (Ac-D-Phe^1,Leu^8,Δ^Z Phe9)litorin-OMe]			1.18 nM	
CC(C)C[C@@H](C(N)=O)S(=O)(=O)C[C@H](Cc1ccccc1)NC(=O)[C@H](Cc1c[nH]cn1)NC(=O)CNC(=O)[C@@H](NC(=O)[C@H](C)NC(=O)[C@H](Cc1c[nH]c2ccccc12)NC(=O)[C@H](CCC(N)=O)NC(=O)[C@@H]1CCC(=O)N1)C(C)C [Analog IX, (Phe^8 .PSI.[CH2 SO2]Leu^9 litorin] ([pGlu]QWAVGH-X2; C-terminus assumed)		30	9.9 nM	Agonist/antagonist character in words (bombesin receptor [1]; text under Table 1): antagonist
COC(=O)/C(=C\c1ccccc1)NC(=O)[C@H](CC(C)C)NC(=O)[C@H](Cc1c[nH]cn1)NC(=O)CNC(=O)[C@@H](NC(=O)[C@H](C)NC(=O)[C@H](Cc1c[nH]c2ccccc12)NC(=O)[C@H](CCC(N)=O)NC(=O)[C@@H](Cc1ccccc1)NC(C)=O)C(C)C [Analog VII, (Ac-D-Phe^1,Leu^8,Δ^E Phe^9)litorin-OMe]			18.6 nM	
COC(=O)/C(=C/c1ccccc1)N(C)C(=O)[C@H](CC(C)C)NC(=O)[C@H](Cc1c[nH]cn1)NC(=O)[C@@H](C)NC(=O)[C@@H](NC(=O)[C@H](C)NC(=O)[C@H](Cc1c[nH]c2ccccc12)NC(=O)[C@H](CCC(N)=O)NC(=O)[C@@H](Cc1ccccc1)NC(C)=O)C(C)C [Analog VIII, (Ac-D-Phe^1,D-Ala^6,Leu^8,N(Me)Δ^Z Phe^9) litorin-OMe] (Ac-[dF]QWAV[dA]HL[X1]-OMe)				Kd (bombesin receptor [3]; competitive binding vs 125I-GRP, mouse pancreas, read-out: Kd): 65.3 nM
